Results from the NIST ThermoML archive (doi:10.1021/acs.jced.5b00197).

Experiment: refractive index (other wavelength) (dimensionless); xn = mol fraction of the nth substance listed
Conditions: 94.64 kPa, Liquid, Standard Abbe refractometry

CC(=O)O [acetic acid] + O
refractive index
Conditions	Wavelength=404.7 nm	Wavelength=435.8 nm	Wavelength=486.1 nm	Wavelength=546.1 nm	Wavelength=587.6 nm	Wavelength=632.8 nm	Wavelength=644 nm	Wavelength=706.5 nm
293.15 K, x1 = 0.0322	1.35074	1.34808	1.34498	1.34229	1.34084	1.3395	1.33919	1.33766
293.15 K, x1 = 0.0697	1.35808	1.35532	1.35218	1.3494	1.34797	1.34664	1.34631	1.34473
293.15 K, x1 = 0.114	1.36535	1.36252	1.35924	1.35643	1.35495	1.35355	1.35322	1.35158
293.15 K, x1 = 0.167	1.37162	1.36869	1.36533	1.36247	1.36095	1.35953	1.35919	1.35756
293.15 K, x1 = 0.231	1.37678	1.3738	1.37034	1.36744	1.36589	1.36444	1.36411	1.36247
293.15 K, x1 = 0.31	1.38181	1.37874	1.37522	1.37227	1.37068	1.36921	1.36888	1.36724
293.15 K, x1 = 0.412	1.38536	1.38226	1.37869	1.37571	1.37412	1.37264	1.3723	1.37065
293.15 K, x1 = 0.545	1.38847	1.3853	1.38169	1.37868	1.37709	1.37561	1.37526	1.37359
293.15 K, x1 = 0.629	1.38867	1.3855	1.38192	1.37889	1.3773	1.37583	1.37548	1.37381
293.15 K, x1 = 0.729	1.38865	1.38547	1.38189	1.37886	1.37727	1.37581	1.37547	1.37382
293.15 K, x1 = 0.85	1.38695	1.38381	1.38021	1.37723	1.37565	1.37419	1.37386	1.37224
293.15 K, x1 = 1	1.38345	1.38034	1.37681	1.37386	1.3723	1.37087	1.37055	1.36896
298.15 K, x1 = 0.0322	1.34997	1.34733	1.34424	1.34156	1.34012	1.33879	1.33848	1.33695
298.15 K, x1 = 0.0697	1.35708	1.35435	1.35121	1.34845	1.347	1.34567	1.34535	1.34377
298.15 K, x1 = 0.114	1.36413	1.36131	1.35805	1.35525	1.35378	1.35239	1.35206	1.35044
298.15 K, x1 = 0.167	1.37026	1.36733	1.36401	1.36114	1.35963	1.35823	1.3579	1.35625
298.15 K, x1 = 0.231	1.37523	1.37226	1.36885	1.36595	1.36441	1.36298	1.36265	1.36102
298.15 K, x1 = 0.31	1.38012	1.37707	1.37358	1.37063	1.36906	1.36762	1.36728	1.36564
298.15 K, x1 = 0.412	1.38357	1.38048	1.37695	1.37398	1.37239	1.37092	1.37059	1.36894
298.15 K, x1 = 0.545	1.38656	1.38342	1.37983	1.37683	1.37525	1.37378	1.37344	1.37178
298.15 K, x1 = 0.629	1.38681	1.38367	1.38008	1.37709	1.37551	1.37404	1.3737	1.37205
298.15 K, x1 = 0.729	1.38668	1.38352	1.37994	1.37695	1.37536	1.3739	1.37357	1.37193
298.15 K, x1 = 0.85	1.38488	1.38174	1.37819	1.37522	1.37365	1.37221	1.37188	1.37027
298.15 K, x1 = 1	1.38126	1.37816	1.37466	1.37174	1.37018	1.36876	1.36844	1.36686
303.15 K, x1 = 0.0322	1.34916	1.34654	1.34343	1.34077	1.33932	1.338	1.3377	1.3362
303.15 K, x1 = 0.0697	1.35605	1.35332	1.35017	1.34743	1.34598	1.34464	1.34432	1.34275
303.15 K, x1 = 0.114	1.36289	1.36008	1.35684	1.35405	1.35256	1.35117	1.35085	1.34926
303.15 K, x1 = 0.167	1.36886	1.36596	1.36261	1.35979	1.35827	1.35686	1.35653	1.35492
303.15 K, x1 = 0.231	1.37369	1.37074	1.36734	1.36446	1.36293	1.36151	1.36118	1.35956
303.15 K, x1 = 0.31	1.37842	1.37539	1.37192	1.36899	1.36742	1.36598	1.36565	1.36402
303.15 K, x1 = 0.412	1.38176	1.37869	1.37516	1.37223	1.37064	1.36917	1.36884	1.36722
303.15 K, x1 = 0.545	1.38463	1.3815	1.37794	1.37497	1.37337	1.3719	1.37157	1.36995
303.15 K, x1 = 0.629	1.38481	1.38167	1.37813	1.37513	1.37355	1.3721	1.37176	1.37013
303.15 K, x1 = 0.729	1.38467	1.38153	1.37797	1.375	1.37341	1.37196	1.37163	1.37002
303.15 K, x1 = 0.85	1.38283	1.37972	1.37618	1.37323	1.37166	1.37023	1.3699	1.36831
303.15 K, x1 = 1	1.37917	1.37611	1.37261	1.36968	1.36815	1.36675	1.36643	1.36485
